Read-outs that look alike come from different tables or passages of the source. Marks after values point to notes of the source that are not given here.
What was measured:
[1] = system: hepatitis C virus (HCV) replicon; assay: HCV replication in AVA5 replicon cell culture, 3-day assay; type: cell-based; details: AVA5 cells; for EC50: 2-fold depression of HCV RNA; for EC90: 10-fold depression of HCV RNA
Protocol: (§1) Anti-Hepatitis C Virus (HCV) analyses and an assessment of cytotoxicity were performed in a 3-day assay in the HCV replicon-containing human hepatoblastoma cell line, AVA5 (Okuse, C., Rinaudo, J. A., Farrar, K., Wells, F. & Korba, B. E. Enhancement of antiviral activity against hepatitis C virus in vitro by interferon combination therapy. Antivir. Res. 65, 23-34 (2005)) as previously described (Blight, K. J., Kolykhalov, A. A. & Rice, C. M. Efficient initiation of HCV RNA replication in cell culture. Science 290, 1972-1974 (2000)).
(§2) Values presented (±standard deviations [S.D.]) were calculated by linear regression analysis using data combined from all treated cultures. S.D. were calculated using the standard error of regression generated from the linear regression analyses (QuattroPro™). EC50, EC90=drug concentration at which a 2-fold, or a 10-fold depression of HCV RNA (relative to the average levels in untreated cultures), respectively, was observed. CC50=drug concentration at which a 2-fold depression of neutral red dye uptake was observed relative to the average levels in untreated cultures. Selectivity index=CC50/EC50.

[2] = system: AVA5 cells; assay: Cytotoxicity in AVA5 cells (neutral red dye uptake); type: cell-based, human; details: neutral red dye uptake, values for interferon
Protocol: as §1, §2

[3] = system: Rotavirus: Simian Rotavirus SA-11; assay: microbe, parasite or virus in culture; type: cell-based; details: Simian rotavirus SA-11, MA104 cell culture
[4] = system: Influenza A: PR8 strain; assay: microbe, parasite or virus in culture; type: cell-based, Influenza A virus
[5] = system: Paramyxovirus: Sendai virus; assay: microbe, parasite or virus in culture; type: cell-based; details: Sendai virus, 37RC cell culture (Table 1)
[6] = system: Coronavirus: canine coronavirus strain S-378; assay: microbe, parasite or virus in culture; type: cell-based; details: canine coronavirus strain S-378, A72 cell culture
[7] = system: Rhabdovirus: Vesicular stomatitis virus; assay: microbe, parasite or virus in culture; type: cell-based
[8] = system: Herpes Simplex type 1: strain F1; assay: microbe, parasite or virus in culture; type: cell-based, Herpes Simplex virus type 1; details: Herpes Simplex type 1 strain F1, HEp-2 cell culture
[9] = system: Hepatitis B Virus (HBV); assay: HBV replication in 2.2.15 cell culture, 9-day assay; type: cell-based; details: for EC50 / EC90: Hepatitis B virus, 2.2.15 cells
Protocol: (§3) Anti-Hepatitis B Virus (HBV) analyses and an assessment of cytotoxicity were performed in a 9-day assay in the chronically-producing HBV human hepatoblastoma cell line, 2.2.15, as previously described (Korba, B. E. & Gerin, J. L. Use of a standardized cell culture assay to assess activities of nucleosides analogues against hepatitis B virus replication. Antivir. Res. 19, 55-70 (1992)).
(§4) Values presented (±standard deviations [S.D.]) were calculated by linear regression analysis using data combined from all treated cultures. S.D. were calculated using the standard error of regression generated from linear regression analyses (QuattroPro™). EC50, EC90=drug concentration at which a 2-fold, or a 10-fold depression of HBV DNA (relative to the average levels in untreated cultures), respectively, was observed, CC50=drug concentration at which a 2-fold depression of neutral red dye uptake (relative to the average levels in untreated cultures) was observed, The EC90 values were used for the calculation of the Selectivity Indexes [S.I.] since at least a 3-fold depression of HBV levels is typically required to achieve statistical significance in this assay system. HBV R.I.=intracellular HBV DNA replication intermediate.

[10] = Cytotoxicity in 2.2.15 cells (neutral red dye uptake); type: cell-based; details: human, 2-fold depression of neutral red dye uptake
Protocol: as §3, §4

[11] = Cytotoxicity in AVA5 cells (neutral red dye uptake); type: cell-based, human; details: human, 2-fold depression of neutral red dye uptake
Protocol: as §1, §2

[12] = system: B. fragilis group; assay: CLSI agar dilution MIC, anaerobic clinical isolates; type: cell-based; details: Bacteroides fragilis, B. fragilis gp (40 isolates), 48 h, 35° C.
Protocol: (§5) Methods. Recent clinical anaerobic isolates (2000 to date) comprised 40 B. fragilis group, 26 Prevotella/Porphyromonas, 28 fusobacteria, 16 anaerobic Gram positive cocci, 14 anaerobic Gram-positive non-sporeforming rods and 18 clostridia. CLSI agar dilution MIC methodology with enriched Brucella blood agar and inocula of 1×10^5 cfu/spot was used. Plates were incubated in an anaerobic glove box at 35° C. for 48 h. Results.

[13] = system: Prevotella/Porphyromonas; assay: as above; type: cell-based; details: Prev/Porphy (26 isolates), 48 h
Protocol: as §5

[14] = system: fusobacteria; assay: as above; type: cell-based; details: Fusobacteria (28 isolates), 48 h
Protocol: as §5

[15] = system: anaerobic Gram positive cocci; assay: as above; type: cell-based; details: Gram + cocci (16 isolates), 48 h
[16] = system: anaerobic Gram-positive non-sporeforming rods; assay: as above; type: cell-based; details: Gram + rods (14 isolates), 48 h
[17] = system: clostridia; assay: organism not typed; type: cell-based; details: Clostridia (18 isolates), agar dilution, 48 h
[18] = system: anaerobic bacteria (all 142 isolates); assay: CLSI agar dilution MIC, all anaerobic clinical isolates; type: cell-based
[19] = All (142 isolates), agar dilution, 48 h

Q: Which results are given for ∝ - Interferon?
A: EC50 ([1]; values for interferon): 2.2 ± 0.2 IU/ml; EC90 ([1]; values for interferon): 8.5 ± 0.6 IU/ml; CC50 [2]: >10,000*^§ IU/ml

Q: With `Cc1cccc(C(=O)Nc2ncc(Br)s2)c1O` [RM-4819, 2-(hydroxy)-3-methyl-N-(5-bromo-2-thiazolyl)benzamide] as the compound, how does the EC50 ([3]; Rotavirus A) read?
A: Its EC50 is 0.3 µM.

Q: And the “SI (selectivity index) = CC50/EC50” value ([3]; CC50 by MTT)?
A: Its value is over 500.

Q: What about the “SI (selectivity index) = CC50/EC50” value ([4]; Influenza A PR8 strain, MDCK cell culture, CC50 by MTT) of the same compound?
A: The value was over 17.

Q: What about the EC50 ([4]; Influenza A virus, PR8, MDCK) of the same compound?
A: The EC50 was 9.6 µM.

Q: And the EC50 ([5]; Respirovirus muris)?
A: The EC50 was 1.3 µM.

Q: And the “SI (selectivity index) = CC50/EC50” value ([5]; CC50 by MTT)?
A: Its value is over 125.

Q: What about the EC50 ([6]; Alphacoronavirus 1, A-72) of the same compound?
A: The EC50 was 4.9 µM.

Q: What about the “SI (selectivity index) = CC50/EC50” value ([6]; CC50 by MTT) of the same compound?
A: The value was over 33.

Q: What about the EC50 ([7]; MA104) of the same compound?
A: The EC50 was 1.6 µM.

Q: What about the “SI (selectivity index) = CC50/EC50” value ([7]; MA104 cell culture, CC50 by MTT) of the same compound?
A: Its value is over 100.

Q: And the “SI (selectivity index) = CC50/EC50” value ([8]; CC50 by MTT)?
A: The value was over 250.

Q: What about the EC50 ([8]; Human alphaherpesvirus 1) of the same compound?
A: Its EC50 is 0.6 µM.

Q: What about the EC50 ([9]; 2-fold depression of HBV DNA, read-out: Extracellular Virion DNA EC50) of the same compound?
A: The EC50 was 3.5 ± 0.5 µM.

Q: And the EC90 ([9]; 10-fold depression of HBV DNA, read-out: Extracellular Virion DNA EC90)?
A: The EC90 was 9 ± 0.8 µM.

Q: And the EC50 ([9]; intracellular HBV DNA replication intermediate, 2-fold depression, read-out: Intracellular HBV R.I. EC50)?
A: The EC50 was 7.6 ± 0.9 µM.

Q: And the EC90 ([9]; intracellular HBV DNA replication intermediate, 10-fold depression, read-out: Intracellular HBV R.I. EC90)?
A: The EC90 was 22 ± 2.6 µM.

Q: And the “Selectivity Index R.I.” value ([9]; calculated with EC90 values (CC50/EC90), HBV R.I.)?
A: The value was over 46.

Q: What about the “Selectivity Index Virion” value ([9]; calculated with EC90 values (CC50/EC90), virion DNA) of the same compound?
A: Its value is over 111.

Q: What about the CC50 at 9 day [10] of the same compound?
A: Its CC50 at 9 day is over 1000 µM.

Q: What about the “Selectivity Index” value ([1]; CC50/EC50) of the same compound?
A: The value was 18.

Q: What about the EC50 ([1]; Hepatitis C virus, read-out: EC50) of the same compound?
A: The EC50 was 8.9 ± 0.7 µM.

Q: And the EC90 ([1]; Hepatitis C virus, read-out: EC90)?
A: Its EC90 is 79 ± 8.2 µM.

Q: What about the CC50 at 3 day [11] of the same compound?
A: Its CC50 at 3 day is 164 ± 18 µM.

Q: And the MIC50 [12]?
A: The MIC50 was over 32 µg/mL.

Q: And the MIC90 [12]?
A: Its MIC90 is over 32 µg/mL.

Q: What about the MIC50 [13] of the same compound?
A: Its MIC50 is over 32 µg/mL.

Q: And the MIC90 [13]?
A: Its MIC90 is over 32 µg/mL.

Q: And the MIC50 [14]?
A: Its MIC50 is over 32 µg/mL.

Q: What about the MIC90 [14] of the same compound?
A: The MIC90 was over 32 µg/mL.

Q: And the MIC50 [15]?
A: Its MIC50 is over 32 µg/mL.

Q: What about the MIC90 [15] of the same compound?
A: Its MIC90 is over 32 µg/mL.

Q: And the MIC50 [16]?
A: Its MIC50 is over 32 µg/mL.

Q: What about the MIC90 [16] of the same compound?
A: Its MIC90 is over 32 µg/mL.

Q: And the MIC50 ([17]; read-out: MIC50)?
A: Its MIC50 is over 32 µg/mL.

Q: What about the MIC90 ([17]; read-out: MIC90) of the same compound?
A: The MIC90 was over 32 µg/mL.

Q: And the MIC50 [18, 19]?
A: Its MIC50 is over 32 µg/mL.

Q: And the MIC90 [18, 19]?
A: Its MIC90 is over 32 µg/mL.

Q: And the “Activity against anaerobic bacteria groups (summary in words)” value ([18]; summary of MIC results)?
A: The value was “without significant activity”.
